Measured values taken from PubChem BioAssay (NCI).
“And” between values parts separate entries of the source, which are not always exact repeats. Identical values can stand only once.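 Where inhibition never reached the appropriate level, the endpoint shown equals the highest concentration tested. Otherwise, values were interpolated linearly from a five-concentration, 48-hour dose response in 96-well plates. GI50 is the concentration that inhibits growth by half. The concentration for full growth arrest is given as TGI.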

Legend:
Assay in all cases: NCI-60 cell line screen, 48 h
[1] = test system: HCC-2998 colon
[2] = test system: SK-MEL-5 melanoma
[3] = test system: LOX IMVI melanoma
[4] = test system: TK-10 renal
[5] = test system: ACHN renal
[6] = test system: HCT-116 colon
[7] = test system: EKVX NSCLC
[8] = test system: COLO 205 colon
[9] = test system: PC-3 prostate
[10] = test system: CAKI-1 renal

Structure (SMILES)	GI50 [1]	TGI [1] [µM]	GI50 [2]	TGI [2]	GI50 [3]	TGI [3] [µM]	TGI [4] [µM]	GI50 [5]	TGI [5] [µM]	GI50 [6]	TGI [6] [µM]	GI50 [7]	TGI [7] [µM]	GI50 [8]	TGI [8]	GI50 [9]	TGI [9] [µM]	GI50 [10] [µM]	TGI [10] [µM]	GI50 [4] [µM]
CC[C@H](C)[C@H](NC(=O)[C@H]1CCCCN1C)C(=O)N(C)[C@H](C[C@@H](OC(C)=O)c1cccc(C(=O)N[C@@H](Cc2ccccc2)C[C@H](C)C(=O)OC)n1)C(C)C	0.00362 µM and 0.0025 µM	> 25	0.00107 µM and 0.0025 µM	0.0382 µM and 0.0333 µM	0.0067 µM and 0.0025 µM	> 25	> 25	0.00638 µM and 0.013 µM	> 25	0.00325 µM and 0.0025 µM	> 25	0.00838 µM and 0.00863 µM	> 25	0.00182 µM and 0.0025 µM	0.0132 µM and 0.00446 µM	0.0032 µM and 0.0025 µM	> 25	–	–	–
Fc1ccc(-c2c(-c3ccncc3)nc3n2CCS3)cc1	> 25 µM	> 25	> 25 µM	> 25 µM	> 25 µM	> 25	> 25	> 25 µM	> 25	> 25 µM	> 25	> 25 µM	> 25	> 25 µM	> 25 µM	> 25 µM	> 25	> 25	> 25	> 25
O=C(NCCCCN1CCOCC1)c1cc2ccccc2o1	> 100 µM	> 100	> 100 µM	> 100 µM	> 100 µM	> 100	> 100	> 100 µM	> 100	> 100 µM	> 100	> 100 µM	> 100	> 100 µM	> 100 µM	> 100 µM	> 100	> 100	> 100	> 100
Cc1ccc(O)c(NC(=O)c2cccc(Nc3ccnc(C(F)(F)F)c3)c2)c1	10.5 µM	23.2	2.15 µM	14 µM	9.46 µM	27.4	73.5	9.65 µM	48.8	4.14 µM	17.8	3.37 µM	59.4	14.6 µM	33.7 µM	11.4 µM	38.5	11	31.8	19.1
Cc1onc(-c2ccccc2)c1C(=O)N/N=C/c1cc(Cl)cc(Cl)c1O	4.13 µM	18.2	3.47 µM	21.1 µM	2.93 µM	32.3	> 100	2.67 µM	> 100	4.11 µM	> 100	–	–	3.84 µM	24.2 µM	3.93 µM	32.6	1.84	10.5	5.01
CC(=O)O[C@@H]1C2CCC3C(CC[C@@]4(C)C3CC[C@@H]4C(C)N(C)C)[C@@]2(C)CC[C@@H]1NC(=O)C=C(C)C (stereo not given in full)	1.73 µM	3.66	1.38 µM	2.68 µM	1.47 µM	3.09	17.4	3.56 µM	12.8	1.54 µM	3.49	2.8 µM	16.6	1.62 µM	3.1 µM	2.79 µM	13.9	3.4	11.3	5.21
